The record followed here is US12447149B2, “Formulations of vimseltinib” (Deciphera Pharmaceuticals, LLC, priority 2023, dated 2025).

Common to all, as to assay type: physicochemical
A short description of data set [1]: Static storage stability of crystalline dihydrate and anhydrous forms (XRPD, DSC, KF weekly for four weeks). Here is the method:
The stability of crystalline dihydrate and anhydrous forms of the compound represented by Formula (I) at varying relative humidity (RH) and temperature was investigated.
For example, the stability of crystalline dihydrate and anhydrous forms of the compound represented by Formula (I), as prepared according to Example 1 and Example 2, respectively, was studied under other conditions by placing aliquots of each form in static storage at conditions of 40° C./75% RH, 25° C./97% RH, 40° C./0% RH and 25° C./0% RH and analyzing the aliquots once weekly for four weeks using XRPD, DSC, and KF.

Data set [2] is described as follows: Particle size distribution (PSD) of crystalline dihydrate form and seeds, DMAC-water crystallization. As to conditions: for particle size d10 of seeds / particle size d50 of seeds / particle size d90 of seeds: seeds used in DMAC-water crystallization.
Data set [3] is described as follows: Particle size analysis by laser diffraction (Malvern Mastersizer 3000, wet dispersion). The settings on record: volume distribution. As to the method:
Particle size analysis of dihydrate vimseltinib drug substance samples was determined by laser diffraction using a Malvern Mastersizer 3000 instrument in a wet dispersion mode.
Prior to analysis, dihydrate drug substance samples were rotated and inverted in the sample container at least 10 times to ensure homogeneity. Between 20 and 25 mg of sample was weighed into a Malvern Glass tube. 20 mL of the Dispersant Solution (0.1% Span 85 in Isoparaffin G) was added and vortexed until a homogeneous suspension was obtained (˜30 s). The sample was then placed in a Vibra-Cell ultrasonic processor. The amplitude was set to the target of 30% (4 Watts) using an external probe (Vibra-Cell) during 90 sec.
After background measurement, the sample dispersion was slowly added to the dispersion unit of the instrument to achieve an obscuration level target of 5%. The sample was stirred at 3250 rpm for at least 1 minute to ensure dispersion and stabilization of the sample. After stabilization, the measurement was started and performed using a Malvern Mastersizer 3000 according to the method conditions provided in Table 17.

Setting [4] is: jet-milled seed batch, crystallization 1 at 60° C. with 7% seeds, crystallization 2 at 64° C. with 5% seeds.
Where [5] appears, read: storage 25° C./0% RH, Week 4, listed as crystalline dihydrate form (having average crystal sizes of about 1 mm).
Where [6] appears, read: storage 40° C./0% RH, Week 4, listed as crystalline dihydrate form (having average crystal sizes of about 1 mm).
Where [7] appears, read: milled seeds of crystalline dihydrate form used in DMAC-water crystallization, listed as 1.
[8] abbreviates: listed as seeds of a smaller size.
Where [9] appears, read: crystallization outputs using seeds of a smaller size (about 1/3/5 μm).
[10] abbreviates: crystallized with milled seeds of about 3/6/12 μm, seeding about 65° C., about 3% seeds, laboratory and production scale.

Turning to `Cc1nc(-c2cnc(NC(C)C)n(C)c2=O)ccc1Oc1ccnc(-c2cnn(C)c2)c1`, the “KF (%)” value was determined as 0.1% in data set [1] (storage 25° C./0% RH, Week 1); 0.1% in data set [1] (storage 25° C./0% RH, Week 2); 0.0% in data set [1] (storage 25° C./0% RH, Week 3); 0.2% in data set [1] (storage 25° C./0% RH, Week 4); 0.3% in data set [1] (storage 25° C./97% RH, Week 1); 0.3% in data set [1] (storage 25° C./97% RH, Week 2). Moreover, the “KF (%)” value in data set [1] (storage 25° C./97% RH, Week 3) is reported as 0.2%; in data set [1] (storage 25° C./97% RH, Week 4), 0.4%; in data set [1] (storage 40° C./0% RH, Week 1) it was 0.1%; in data set [1] (storage 40° C./0% RH, Week 2), 0.0%; in data set [1] (storage 40° C./0% RH, Week 3), 0.0%; in data set [1] (storage 40° C./0% RH, Week 4), 0.2%. The “KF (%)” value came to 0.3% in data set [1] (storage 40° C./75% RH, Week 1); 0.2% in data set [1] (storage 40° C./75% RH, Week 2); 0.1% in data set [1] (storage 40° C./75% RH, Week 3); 0.3% in data set [1] (storage 40° C./75% RH, Week 4). The XRPD result was “Anhydrous” in data set [1] (storage 25° C./0% RH, Week 1); “Anhydrous” in data set [1] (storage 25° C./0% RH, Week 2); “Anhydrous” in data set [1] (storage 25° C./0% RH, Week 3); “Anhydrous” in data set [1] (storage 25° C./0% RH, Week 4); “Anhydrous” in data set [1] (storage 25° C./97% RH, Week 1); “Anhydrous” in data set [1] (storage 25° C./97% RH, Week 2). Further, the XRPD result in data set [1] (storage 25° C./97% RH, Week 3) was “Anhydrous”; in data set [1] (storage 25° C./97% RH, Week 4) it was “Anhydrous”; in data set [1] (storage 40° C./0% RH, Week 1) it was “Anhydrous”; in data set [1] (storage 40° C./0% RH, Week 2), “Anhydrous”; in data set [1] (storage 40° C./0% RH, Week 3), “Anhydrous”; in data set [1] (storage 40° C./0% RH, Week 4), “Anhydrous”. In addition, the XRPD result in data set [1] (storage 40° C./75% RH, Week 1) was “Anhydrous”; in data set [1] (storage 40° C./75% RH, Week 2) it was “Anhydrous”; in data set [1] (storage 40° C./75% RH, Week 3), “Anhydrous”; in data set [1] (storage 40° C./75% RH, Week 4) it was “Anhydrous”.
`Cc1nc(-c2cnc(NC(C)C)n(C)c2=O)ccc1Oc1ccnc(-c2cnn(C)c2)c1.O.O` [Crystalline dihydrate form of the compound represented by Fo] [listing 1 of 2 here]: in data set [2] (setting [4]), the “Particle Size d10” value amounted to 3.6 microns, the “Particle Size d50” value was found to be 8.4 microns and the “Particle Size d90” value is listed as 16.2 microns.
On the same counts, the results for `Cc1nc(-c2cnc(NC(C)C)n(C)c2=O)ccc1Oc1ccnc(-c2cnn(C)c2)c1.O.O` [Crystalline dihydrate form of the compound represented by Fo] [listing 2 of 2 here] are 3.9 microns, 8.5 microns and 16.0 microns.
On to `Cc1nc(-c2cnc(NC(C)C)n(C)c2=O)ccc1Oc1ccnc(-c2cnn(C)c2)c1.O.O` [Dihydrate form of the compound represented by Formula (I) (h] [listing 1 of 2 here], for which the “KF (%)” value is given as 7.7% in data set [1] (storage 25° C./0% RH, Week 1); 7.6% in data set [1] (storage 25° C./0% RH, Week 2); 7.2% in data set [1] (storage 25° C./0% RH, Week 3); 5.8% in data set [1] (storage 25° C./0% RH, Week 4); 5.8% in data set [1] (setting [5]); 7.7% in data set [1] (storage 25° C./97% RH, Week 1). The “KF (%)” value in data set [1] (storage 25° C./97% RH, Week 2) was 7.7%; in data set [1] (storage 25° C./97% RH, Week 3), 7.4%; in data set [1] (storage 25° C./97% RH, Week 4) it was 7.7%; in data set [1] (storage 40° C./0% RH, Week 1), 0.8%; in data set [1] (storage 40° C./0% RH, Week 2), 0.3%; in data set [1] (storage 40° C./0% RH, Week 3), 0.1%. The “KF (%)” value in data set [1] (storage 40° C./0% RH, Week 4) is 0.2%; in data set [1] (setting [6]), 0.2%; in data set [1] (storage 40° C./75% RH, Week 1), 7.7%; in data set [1] (storage 40° C./75% RH, Week 2), 7.6%; in data set [1] (storage 40° C./75% RH, Week 3) it was 7.7%; in data set [1] (storage 40° C./75% RH, Week 4), 7.7%. Further, the XRPD entry is listed as “Dihydrate” in data set [1] (storage 25° C./0% RH, Week 1); “Dihydrate” in data set [1] (storage 25° C./0% RH, Week 2); “Dihydrate” in data set [1] (storage 25° C./0% RH, Week 3); “partially converted to the crystalline anhydrous form” in data set [1] (setting [5]); “Dihydrate” in data set [1] (storage 25° C./97% RH, Week 1); “Dihydrate” in data set [1] (storage 25° C./97% RH, Week 2). Besides, the XRPD entry was “Dihydrate” in data set [1] (storage 25° C./97% RH, Week 3); “Dihydrate” in data set [1] (storage 25° C./97% RH, Week 4); “remained stable and unchanged” in data set [1] (storage 25° C./97% RH, Week 4, listed as crystalline dihydrate form (having average crystal sizes of about 1 mm)); “Anhydrous” in data set [1] (storage 40° C./0% RH, Week 3); “partially converted to the crystalline anhydrous form” in data set [1] (setting [6]); “Dihydrate” in data set [1] (storage 40° C./75% RH, Week 1). The XRPD entry in data set [1] (storage 40° C./75% RH, Week 2) was “Dihydrate”; in data set [1] (storage 40° C./75% RH, Week 3), “Dihydrate”; in data set [1] (storage 40° C./75% RH, Week 4), “Dihydrate”; in data set [1] (storage 40° C./75% RH, Week 4, listed as crystalline dihydrate form (having average crystal sizes of about 1 mm)) it was “remained stable and unchanged”.
As to `Cc1nc(-c2cnc(NC(C)C)n(C)c2=O)ccc1Oc1ccnc(-c2cnn(C)c2)c1.O.O` [Dihydrate form of the compound represented by Formula (I) (h] [listing 2 of 2 here], the “KF (%)” value is listed as 7.5% in data set [1] (storage 25° C./0% RH, Week 1); 7.7% in data set [1] (storage 25° C./0% RH, Week 2); 8.1% in data set [1] (storage 25° C./0% RH, Week 3); 7.9% in data set [1] (storage 25° C./0% RH, Week 4); 7.6% in data set [1] (storage 25° C./97% RH, Week 1); 7.5% in data set [1] (storage 25° C./97% RH, Week 2). The “KF (%)” value in data set [1] (storage 25° C./97% RH, Week 3) was 7.9%; in data set [1] (storage 25° C./97% RH, Week 4), 7.9%; in data set [1] (storage 40° C./0% RH, Week 1), 7.5%; in data set [1] (storage 40° C./0% RH, Week 2), 7.4%; in data set [1] (storage 40° C./0% RH, Week 3), 7.0%; in data set [1] (storage 40° C./0% RH, Week 4) it was 3.4%. Also, the “KF (%)” value was determined as 7.5% in data set [1] (storage 40° C./75% RH, Week 1); 7.9% in data set [1] (storage 40° C./75% RH, Week 2); 8.0% in data set [1] (storage 40° C./75% RH, Week 3); 7.9% in data set [1] (storage 40° C./75% RH, Week 4). The XRPD entry was “Dihydrate” in data set [1] (storage 25° C./0% RH, Week 4); “Pattern 4” in data set [1] (storage 40° C./0% RH, Week 1); “Pattern 4” in data set [1] (storage 40° C./0% RH, Week 1, listed as crystalline dihydrate form (having crystal sizes in the range of about 10-50 μm)); “Pattern 4” in data set [1] (storage 40° C./0% RH, Week 2); “Pattern 4” in data set [1] (storage 40° C./0% RH, Week 2, listed as crystalline dihydrate form (having crystal sizes in the range of about 10-50 μm)); “Pattern 4 and peaks at 9.9° and 10.6°” in data set [1] (storage 40° C./0% RH, Week 3, listed as crystalline dihydrate form (having crystal sizes in the range of about 10-50 μm)). Further, the XRPD result in data set [1] (storage 40° C./0% RH, Week 4, listed as crystalline dihydrate form (having crystal sizes in the range of about 10-50 μm)) was “Pattern 4 and peaks at 9.9° and 10.6°”.
For the molecule `Cc1nc(-c2cnc(NC(C)C)n(C)c2=O)ccc1Oc1ccnc(-c2cnn(C)c2)c1.O.O` [Lot 1], in data set [2] (setting [7]), the “Particle Size d10” value was 2 microns, the “Particle Size d50” value came out at 5 microns and the “Particle Size d90” value was 13 microns. Besides, in data set [3] (listed as 1), the “D(10)” value was 9 μm, the “D(50)” value is 29 μm and the “D(90)” value is reported as 59 μm.
Regarding `Cc1nc(-c2cnc(NC(C)C)n(C)c2=O)ccc1Oc1ccnc(-c2cnn(C)c2)c1.O.O` [Lot 4], in data set [3] (listed as 4), the “D(10)” value is 7 μm, the “D(50)” value is recorded as 19 μm and the “D(90)” value is on record as 36 μm.
In the case of `Cc1nc(-c2cnc(NC(C)C)n(C)c2=O)ccc1Oc1ccnc(-c2cnn(C)c2)c1.O.O` [Seed batch], in data set [2] (setting [4]), the “Particle Size d10” value is recorded as 1.4 microns, the “Particle Size d50” value is given as 2.7 microns and the “Particle Size d90” value was 5.0 microns. For the same molecule, in data set [2] (setting [8]), the “particle size d10 of seeds” value is recorded as “about 1 μm”, the “particle size d50 of seeds” value was “about 3 μm” and the “particle size d90 of seeds” value was “about 5 μm”.
Regarding `Cc1nc(-c2cnc(NC(C)C)n(C)c2=O)ccc1Oc1ccnc(-c2cnn(C)c2)c1.O.O` [crystalline dihydrate form ground in a mortar and pestle], the XRPD entry in data set [1] (storage 40° C./0% RH, Week 1) was “Pattern 4 and the crystalline anhydrous form were observed”.
Turning to `Cc1nc(-c2cnc(NC(C)C)n(C)c2=O)ccc1Oc1ccnc(-c2cnn(C)c2)c1.O.O` [milled seeds], in data set [2], the “particle size d10 of seeds” value is “about 3 μm”, the “particle size d50 of seeds” value is recorded as “about 6 μm” and the “particle size d90 of seeds” value is listed as “about 12 μm”.
On the same counts, the results for `Cc1nc(-c2cnc(NC(C)C)n(C)c2=O)ccc1Oc1ccnc(-c2cnn(C)c2)c1.O.O` [non-milled batch of crystalline dihydrate form of the compou] are “about 5 μm”, “about 15 μm” and “about 36 μm”.
`Cc1nc(-c2cnc(NC(C)C)n(C)c2=O)ccc1Oc1ccnc(-c2cnn(C)c2)c1` [vimseltinib]: in data set [2] (setting [9]), the “Particle Size d10” value is reported as “about 4 μm”, the “Particle Size d50” value is listed as “about 8 μm” and the “Particle Size d90” value was “about 16 μm”. Moreover, in data set [2] (setting [10]), the “Particle Size d10” value is 6-8 μm, the “Particle Size d50” value is 16-22 μm and the “Particle Size d90” value is 33-40 μm.
